3 molecules from patent publication US20090298872A1, “COMPOUNDS AND COMPOSITIONS AS MODULATORS OF STEROIDAL RECEPTORS AND CALCIUM CHANNEL ACTIVITIES” (IRM LLC, priority 2004, published 2009) can be followed below.

Holding throughout (format): cell-based
In test [1] the target is T1, MR (Homo sapiens, UniProt P08235).
T1 construct: expressed in transfected cells; host or cells: 293T cells (ATCC)
T1 sequence (P08235 672-984): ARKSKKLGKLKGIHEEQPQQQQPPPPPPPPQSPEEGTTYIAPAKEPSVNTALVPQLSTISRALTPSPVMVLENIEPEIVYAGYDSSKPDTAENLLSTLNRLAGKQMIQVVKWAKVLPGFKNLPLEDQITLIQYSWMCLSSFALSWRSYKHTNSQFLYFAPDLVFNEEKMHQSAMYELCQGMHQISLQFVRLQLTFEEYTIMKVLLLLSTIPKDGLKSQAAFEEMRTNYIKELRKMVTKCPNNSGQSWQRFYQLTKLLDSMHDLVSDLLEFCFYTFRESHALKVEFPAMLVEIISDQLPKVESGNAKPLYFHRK
In words: Functional assay of mineralocorticoid receptor antagonism (mammalian two hybrid luciferase reporter, 293T cells). The following applies: antagonism of aldosterone (0.4 nM)-induced MR activity. The protocol:
The MR antagonist activity of the compounds is determined in a mammalian two hybrid reporter system. The N-terminus of MR (MR-NT, sequence coding amino acid 1-597) is fused to the activation domain of the VP16 gene. The ligand binding domain of MR (MR-LBD, sequence encoding amino acid 672-984) is fused to the DNA binding domain of the yeast Gal4 gene. The MR gene is cloned from a human kidney cDNA library with PCR.
The assay is performed in 384 well plates. Briefly, 293T cells (ATCC) are transfected with expression vectors for Gal4-MR-LBD and VP16-MR NT, and a luciferase reporter vector containing Gal4 binding sequence (pG5-Luc). Cells are plated in 384 well plates immediately after transfection (approximately 3×10^4 cells/well in 50 μl medium). The medium is supplemented with 3% charcoal-dextran treated fetal bovine serum (Hyclone). Twenty four hours after transfection, compounds prepared in DMSO are transferred to the cells. The cells are then stimulated with 0.4 nM final concentration of aldosterone (Acros) and incubated at 37° C. for another 24 hours before the luciferase activity is assayed with 20 μl of Bright-Glo (Promega) using a luminometer (CLIPR). The expression of luciferase is used as an indicator of aldosterone-induced MR trans-activation. Each compound is tested in duplicate with 12-concentration titration. IC50 values (defined as the concentration of test compound required to antagonize 50% of aldosterone-induced MR activity) are determined from the dose-response curve.
On the technique in general: In a reporter assay the amount or activity of a reporter protein is the signal.

In test [2] the target is T2, AR (Homo sapiens, UniProt P10275, Q868H).
T2 construct: endogenous in cells; host or cells: MDA-kb2 cells (ATCC)
T2 sequence (P10275 1-920 Q868H): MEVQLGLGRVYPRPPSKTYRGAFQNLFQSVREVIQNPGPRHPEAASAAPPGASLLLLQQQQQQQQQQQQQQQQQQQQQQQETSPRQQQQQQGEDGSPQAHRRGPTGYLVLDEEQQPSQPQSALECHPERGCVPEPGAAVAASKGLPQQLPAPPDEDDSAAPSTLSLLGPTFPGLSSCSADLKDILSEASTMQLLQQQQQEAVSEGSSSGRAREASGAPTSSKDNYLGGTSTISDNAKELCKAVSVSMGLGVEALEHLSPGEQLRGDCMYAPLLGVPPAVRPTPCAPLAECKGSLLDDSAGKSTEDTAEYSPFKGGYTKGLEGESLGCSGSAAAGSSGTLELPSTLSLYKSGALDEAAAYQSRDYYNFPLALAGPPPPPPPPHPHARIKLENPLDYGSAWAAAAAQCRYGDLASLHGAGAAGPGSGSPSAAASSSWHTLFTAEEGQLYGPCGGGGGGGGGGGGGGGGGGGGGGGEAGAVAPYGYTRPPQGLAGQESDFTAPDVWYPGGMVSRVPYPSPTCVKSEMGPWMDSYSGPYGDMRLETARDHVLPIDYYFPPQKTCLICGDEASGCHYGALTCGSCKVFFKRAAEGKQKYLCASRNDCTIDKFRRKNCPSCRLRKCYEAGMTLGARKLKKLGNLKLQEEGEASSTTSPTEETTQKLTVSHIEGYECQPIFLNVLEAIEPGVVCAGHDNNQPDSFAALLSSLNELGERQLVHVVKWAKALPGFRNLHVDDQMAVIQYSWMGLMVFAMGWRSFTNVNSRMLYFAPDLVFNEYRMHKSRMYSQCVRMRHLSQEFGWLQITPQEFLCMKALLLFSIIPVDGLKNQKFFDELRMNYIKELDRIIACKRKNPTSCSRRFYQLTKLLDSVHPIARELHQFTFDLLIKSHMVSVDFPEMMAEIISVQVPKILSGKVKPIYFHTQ
In words: Functional assay of androgen receptor antagonism (MMTV luciferase reporter, MDA-kb2 cells). The following applies: antagonism of dihydrotestosterone (0.3 nM)-induced AR activity. The protocol:
The AR antagonist activity of the compounds is determined with the MDA-Kb2 cell line (ATCC), which stably expresses the MMTV luciferase reporter. The MMTV promoter is a mouse mammary tumor virus promoter that contains androgen receptor response elements. […] Upon stimulation with AR ligands, such as dihydrotestosterone, the MMTV luciferase reporter can be activated.
The assay is performed in 384 well plates. Briefly, MDA-kb2 cells are plated in 384 well plates at a density of approximately 2.4×10^4 cells/well in 50 μl medium. The medium is supplemented with 5% charcoal-dextran treated fetal bovine serum (Hyclone). Twenty four hours later, compounds prepared in DMSO are transferred to the cells. The cells are then stimulated with 0.3 nM final concentration of dihydrotestosterone (Sigma) and incubated at 37° C. for another 24 hours before the luciferase activity is assayed with 20 μl of Bright-Glo (Promega) using a luminometer (CLIPR). The expression of luciferase is used as an indicator of dihydrotestosterone-induced AR trans-activation. Each compound is tested in duplicate with a 12-concentration titration. IC50 values (defined as the concentration of test compound required to antagonize 50% of dihydrotestosterone-induced AR activity) are determined from the dose-response curve.

The target of test [3] is T3, PR (Homo sapiens, UniProt P06401).
T3 construct: endogenous in cells; host or cells: T-47D cells (ATCC)
T3 sequence (P06401 1-933): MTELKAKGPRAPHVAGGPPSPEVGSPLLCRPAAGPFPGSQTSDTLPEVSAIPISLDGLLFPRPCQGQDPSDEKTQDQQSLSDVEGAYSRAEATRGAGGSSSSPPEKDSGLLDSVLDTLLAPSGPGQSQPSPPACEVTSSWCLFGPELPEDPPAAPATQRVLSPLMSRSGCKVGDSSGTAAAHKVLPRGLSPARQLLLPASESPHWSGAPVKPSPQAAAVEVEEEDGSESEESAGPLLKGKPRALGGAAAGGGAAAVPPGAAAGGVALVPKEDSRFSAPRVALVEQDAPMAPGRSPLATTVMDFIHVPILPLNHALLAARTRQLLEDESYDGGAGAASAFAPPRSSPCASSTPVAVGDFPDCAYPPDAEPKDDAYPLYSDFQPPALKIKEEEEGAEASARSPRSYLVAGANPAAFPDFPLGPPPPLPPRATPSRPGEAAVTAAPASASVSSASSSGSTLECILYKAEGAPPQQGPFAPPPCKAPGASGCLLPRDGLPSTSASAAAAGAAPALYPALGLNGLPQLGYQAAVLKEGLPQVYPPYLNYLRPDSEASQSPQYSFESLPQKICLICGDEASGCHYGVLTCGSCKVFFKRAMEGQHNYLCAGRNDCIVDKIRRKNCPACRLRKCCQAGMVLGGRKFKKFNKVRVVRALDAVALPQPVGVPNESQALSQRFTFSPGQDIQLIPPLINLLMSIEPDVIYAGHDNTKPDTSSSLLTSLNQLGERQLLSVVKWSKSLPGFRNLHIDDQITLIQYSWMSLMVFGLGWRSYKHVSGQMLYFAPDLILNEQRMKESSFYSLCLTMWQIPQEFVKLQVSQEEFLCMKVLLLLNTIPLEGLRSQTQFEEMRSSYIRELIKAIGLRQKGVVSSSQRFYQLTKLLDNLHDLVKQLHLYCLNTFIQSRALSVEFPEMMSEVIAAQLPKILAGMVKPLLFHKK
In words: Functional assay of progesterone receptor antagonism (progesterone-induced alkaline phosphatase, T-47D cells). The following applies: antagonism of progesterone (3 nM)-induced PR activity. As to the method: The PR antagonist activity of the compounds is determined by progesterone-induced alkaline phosphatase activity in the T-47D cell line (ATCC). In the T-47D breast cancer cells, progesterone specifically induces de novo synthesis of a membrane-associated alkaline phosphatase enzyme in a time and dose-dependent manner (Di Lorenzo et al., Cancer Research, 51: 4470-4475 (1991)). The alkaline phosphatase enzymatic activity can be measured with a chemiluminescent substrate, such as CSPD® (Applied Biosystems).
The assay is performed in 384 well plates. Briefly, T-47D cells are plated in 384 well plates at a density of approximately 2.5×10^4 cells/well in 50 μl medium supplemented with 10% fetal bovine serum. Twenty four hours later, the medium is aspirated. New medium that is free of phenol red and serum is added to the cells. Compounds prepared in DMSO are transferred to the cells. The cells are then stimulated with 3 nM final concentration of progesterone (Sigma) and incubated at 37° C. for another 24 hours before the alkaline phosphatase is assayed with 25 μl of CSPD® (Applied Biosystems) using a luminometer (CLIPR). The expression of alkaline phosphatase is used as an indicator of progesterone-induced PR trans-activation. Each compound is tested in duplicate with a 12-concentration titration. […]

The target of test [4] is T4, GR (Homo sapiens, UniProt P04150).
T4 construct: expressed in transfected cells; host or cells: COS-7 cells (ATCC)
T4 sequence (P04150 541-778 isoform P04150-3): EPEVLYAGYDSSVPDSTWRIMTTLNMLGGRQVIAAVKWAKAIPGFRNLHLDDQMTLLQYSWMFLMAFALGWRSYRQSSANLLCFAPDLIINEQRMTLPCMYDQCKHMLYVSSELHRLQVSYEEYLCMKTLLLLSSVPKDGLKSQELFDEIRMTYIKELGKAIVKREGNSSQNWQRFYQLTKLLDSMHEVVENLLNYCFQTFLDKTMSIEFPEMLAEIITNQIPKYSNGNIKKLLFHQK
In words: Functional assay of glucocorticoid receptor antagonism (Gal4-GR-LBD luciferase reporter, COS-7 cells). The following applies: antagonism of dexamethasone (10 nM)-induced GR activity. As to the method: The GR antagonist activity of the compounds is determined in a mammalian two hybrid reporter system. The ligand binding domain of GR (GR-LBD, sequence encoding amino acid 541-778) is fused to the DNA binding domain of the yeast Gal4 gene. The GR gene is cloned from a human lung cDNA library with PCR.
The assay is performed in 384 well plates: COS-7 cells (ATCC) are transfected with expression vectors for Gal-4-GR-LBD and a luciferase reporter vector containing Gal4 binding sequence (pG5-Luc). Cells are plated in 384 well plates immediately after transfection (approximately 8000 cells/well in 50 μl medium). The medium is supplemented with 3% charcoal-dextran treated fetal bovine serum (Hyclone). Twenty four hours after transfection, compounds prepared in DMSO are transferred to the cells. The cells are then stimulated with 10 nM final concentration of dexamethasone (Sigma) and incubated at 37° C. for another 24 hours before the luciferase activity is assayed with 20 μl of Bright-Glo (Promega) using a luminometer (CLIPR). The expression of luciferase is used as an indicator of dexamethasone-induced GR trans-activation. Each compound is tested in duplicate with a 12-concentration titration. IC50 values (defined as the concentration of test compound required to antagonize 50% of dexamethasone-induced GR activity) are determined from the dose-response curve.

pIC50: −log10 of the molar value.

What is called pIC50 is the negative decadic logarithm of the IC50, by convention in mol/L. A higher pIC50 goes with a small IC50. Turning to `COc1ccccc1NC(=O)C1=C(C)NC(SC)=C(C#N)C1c1ccccc1Br` (stereo not shown) [Compound 14, 2-methylthio-3-cyano-4-(2-bromophenyl)-5-(2-methoxyphenyl)carbamoyl-6-methyl-1,4-dihydro-pyridine], the values for the negative-log IC50 (pIC50) in test [1] and in test [2] were 8.10 and 5.59, respectively.
Regarding `COCC1=C(C(=O)OC(C)C)C(c2ccc(F)cc2Br)C(C#N)=C(C)N1` (stereo not shown) [Compound 96, 5-isopropyl-2-methyl-3-cyano-4-(2-bromo-4-fluorophenyl)-6-(methoxymethyl)-1,4-dihydro-pyridine-5-carboxylate], the negative logarithm of the IC50 (pIC50) in test [1] was 8.05; in test [3] it was 5.64; in test [4] it was 5.51; in test [2], 4.40.
As to `COC(=O)C1=C(C)NC(C)=C(C#N)C1c1ccc(F)cc1Cl` (stereo not shown) [Example 207, 5-methyl-2,6-dimethyl-3-cyano-4-(2-chloro-4-fluorophenyl)-1,4-dihydro-pyridine-5-carboxylate], the pIC50 was 7.39 in test [1], 6.32 in test [3], 5.16 in test [4] and 5.54 in test [2].
